Experimental data published in patent US20260176320A1, “MODULATORS OF G-PROTEIN COUPLED RECEPTORS” (priority 2018, published 2026).
Where two headings read alike, the source gives them in different places.

Experiments:
Assay type in all cases: cell-based
GLP-1R [1] = biological target: T1, GLP-1R (Homo sapiens, UniProt P43220); assay: HitHunter cAMP assay (GLP-1R); conditions: cAMP; for Emax: read-out: (Emax) GLP-1R
In short: (§1)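 Suspension cells (10,000/well) in HBSS with 10 mM HEPES, 625 μM IBMX, 0.2% BSA exposed to 22-point 2-fold agonist series in duplicate for 30 min at room temperature. cAMP measured by antibody immunocompetition with overnight development, luminescence read-out.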

GIP-R = biological target: T2, GIP-R (Homo sapiens, UniProt P48546); assay: HitHunter cAMP assay (GIP-R); conditions: cAMP; for Emax: read-out: (Emax) GIP-R
T2 sequence (P48546 22-466): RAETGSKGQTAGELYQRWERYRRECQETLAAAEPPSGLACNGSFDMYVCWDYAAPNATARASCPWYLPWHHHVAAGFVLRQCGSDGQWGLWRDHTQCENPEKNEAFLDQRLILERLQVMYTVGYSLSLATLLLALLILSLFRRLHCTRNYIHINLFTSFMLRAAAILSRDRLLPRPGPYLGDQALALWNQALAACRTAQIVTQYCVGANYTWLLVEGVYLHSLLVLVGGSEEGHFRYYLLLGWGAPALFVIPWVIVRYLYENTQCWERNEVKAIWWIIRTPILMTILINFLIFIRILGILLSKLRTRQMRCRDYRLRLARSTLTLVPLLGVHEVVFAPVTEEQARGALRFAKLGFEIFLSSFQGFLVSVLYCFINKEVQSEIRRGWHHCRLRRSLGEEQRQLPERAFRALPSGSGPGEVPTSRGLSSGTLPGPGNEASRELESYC
In short: as §1

GLP-1R [2] = biological target: T1, GLP-1R; assay: PathHunter β-arrestin assay
Protocol: The effects of the chemical entities described herein on β-arrestin signaling and associated downstream processes (e.g., those delineated above) can be assessed using conventional methods, e.g., PathHunter β-arrestin Assay for determining β-arresting coupling (see Examples section). […] It has been shown that b-arrestin coupling is a key strep in receptor internalization and subsequent de-sensitization and attenuation of signaling.
5,000 cells were seeded in appropriate cell culture media per well in a low volume 384-well tissue culture plate. The assay plate was incubated with cells overnight at 37° C. and 5% CO2. The media was removed, and 5 μL of appropriate cell culture media containing 0.2% BSA was added. Agonist serial dilutions in a separate 384 well dilution plate in a 22-point series of 2× dilutions of agonist in DMSO were performed as follows. 80 μL of the highest concentration of Agonist/DMSO was added to well No. 1. 40 μL was removed from well No. 1, and added to well No. 2, followed by gentle mixing. […] This process was repeated until well No. 22. Additional serial dilutions for additional agonists were set up in a similar manner. 100 nL of each 2× agonist serial dilution was added in duplicate to the designated agonist rows of the assay plate using the Labcyte ECHO. Assay plate was incubated for 90 minutes at 37° C. and 5% CO2. A stock of Working Detection Solution in a separate 15 ml polypropylene tube was prepared by mixing 19 parts of Cell Assay Buffer, 5 parts of Substrate Reagent 1, 1 part Substrate Reagent 2. […] Plates were spun down briefly. Assay plate was incubated for 3 hour at room temperature in the dark for the immunocompetition reaction to occur. Samples were read on Tecan i-control plate reader using luminescence mode with 100 ms integration time. Data analysis was performed using GraphPad Prism.

T1 sequence (P43220 24-463): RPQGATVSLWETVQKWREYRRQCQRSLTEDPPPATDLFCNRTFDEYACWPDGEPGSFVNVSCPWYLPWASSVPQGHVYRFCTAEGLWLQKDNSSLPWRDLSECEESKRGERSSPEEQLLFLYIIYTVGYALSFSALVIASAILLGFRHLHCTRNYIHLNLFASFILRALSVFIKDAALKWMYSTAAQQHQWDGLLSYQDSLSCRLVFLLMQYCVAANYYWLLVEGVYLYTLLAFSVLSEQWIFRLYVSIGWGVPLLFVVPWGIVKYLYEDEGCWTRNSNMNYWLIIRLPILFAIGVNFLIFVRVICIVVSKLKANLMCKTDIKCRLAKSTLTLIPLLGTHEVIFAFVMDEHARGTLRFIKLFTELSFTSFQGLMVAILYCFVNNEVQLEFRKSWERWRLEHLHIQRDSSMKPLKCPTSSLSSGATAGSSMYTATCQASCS

| Compound | EC50 (GLP-1R [1]; EC50 GLP-1R/nM, Table 3) | EC50 (GLP-1R [1]; EC50 GLP-1R/nM, Table 3A) | Emax (GLP-1R [1]; Table 3) | Emax (GLP-1R [1]; Table 3A) | EC50 (GIP-R; EC50 GIP-R/nM, Table 3) | EC50 (GIP-R; EC50 GIP-R/nM, Table 3A) | Emax (GIP-R; Table 3) | Emax (GIP-R; Table 3A) | EC50 (GLP-1R [2]) | EC50 (GLP-1R [1]; Table 3, read-out: EC50 GLP-1R/nM) | EC50 (GLP-1R [1]; Table 3A, read-out: EC50 GLP-1R/nM) | EC50 (GIP-R; Table 3, read-out: EC50 GIP-R/nM) | EC50 (GIP-R; Table 3A, read-out: EC50 GIP-R/nM) | EC50 (GLP-1R [2]; PathHunter β-arrestin assay, read-out: β-arrestin activity EC50) |
| --- | --- | --- | --- | --- | --- | --- | --- | --- | --- | --- | --- | --- | --- | --- |
| CCCCCCCCCCCCCCCC(=O)N[C@@H](CCC(=O)NCCCC[C@H](NC(=O)[C@H](CO)NC(=O)[C@@H]1CCCN1C(=O)[C@@H]1CCCN1C(=O)[C@@H]1CCCN1C(=O)[C@H](C)NC(=O)CNC(=O)[C@H](CO)NC(=O)[C@H](CO)NC(=O)[C@@H]1CCCN1C(=O)CNC(=O)CNC(=O)[C@H](C)NC(=O)[C@H](CC(C)C)NC(=O)[C@H](CC(C)C)NC(=O)[C@H](Cc1c[nH]c2ccccc12)NC(=O)[C@H](CC(N)=O)NC(=O)[C@@H](NC(=O)[C@H](Cc1ccccc1)NC(=O)[C@H](CCC(=O)O)NC(=O)C(C)(C)NC(=O)[C@H](C)NC(=O)[C@H](C)NC(=O)[C@H](CCC(N)=O)NC(=O)[C@H](CCCCN)NC(=O)[C@H](CC(=O)O)NC(=O)[C@H](CC(C)C)NC(=O)[C@H](Cc1ccc(O)cc1)NC(=O)[C@@H](NC(=O)[C@H](CO)NC(=O)[C@H](Cc1ccc(O)cc1)NC(=O)[C@H](CC(=O)O)NC(=O)[C@H](CO)NC(=O)[C@@H](NC(=O)[C@H](Cc1ccccc1)NC(=O)[C@@H](NC(=O)CNC(=O)[C@H](CCC(=O)O)NC(=O)CSCC(=O)NCCN1CCCC(C)(C)C1=O)[C@@H](C)O)[C@@H](C)O)[C@@H](C)CC)C(C)C)C(N)=O)C(=O)O [Compound 10] | 0.1 to 1 nM | 0.1 to 1 nM | 95% | 95% | 1 to 10 nM | 1 to 10 nM | 32% | 32% | > 1000 nM |  |  |  |  |  |
| CCCCCCCCCCCCCCCC(=O)N[C@@H](CCC(=O)NCCCC[C@H](NC(=O)[C@H](CO)NC(=O)[C@@H]1CCCN1C(=O)[C@@H]1CCCN1C(=O)[C@@H]1CCCN1C(=O)[C@H](C)NC(=O)CNC(=O)[C@H](CO)NC(=O)[C@H](CO)NC(=O)[C@@H]1CCCN1C(=O)CNC(=O)CNC(=O)[C@H](C)NC(=O)[C@H](CC(C)C)NC(=O)[C@H](CC(C)C)NC(=O)[C@H](Cc1c[nH]c2ccccc12)NC(=O)[C@H](CC(N)=O)NC(=O)[C@@H](NC(=O)[C@H](Cc1ccccc1)NC(=O)[C@H](CCC(=O)O)NC(=O)C(C)(C)NC(=O)[C@H](C)NC(=O)[C@H](C)NC(=O)[C@H](CCC(N)=O)NC(=O)[C@H](CCCCN)NC(=O)[C@H](CC(=O)O)NC(=O)[C@H](CC(C)C)NC(=O)[C@H](Cc1ccc(O)cc1)NC(=O)[C@@H](NC(=O)[C@H](CO)NC(=O)[C@H](Cc1ccc(O)cc1)NC(=O)[C@H](CC(=O)O)NC(=O)[C@H](CO)NC(=O)[C@@H](NC(=O)[C@H](Cc1ccccc1)NC(=O)[C@@H](NC(=O)CNC(=O)[C@H](CCC(=O)O)NC(=O)CSCC(=O)NCCN1CC[C@@H](OC)C1=O)[C@@H](C)O)[C@@H](C)O)[C@@H](C)CC)C(C)C)C(N)=O)C(=O)O [Compound 11] | 0.1 to 1 nM | 0.1 to 1 nM | 96% | 96% | 1 to 10 nM | 1 to 10 nM | 39% | 39% | > 1000 nM |  |  |  |  |  |
| CCCCCCCCCCCCCCCC(=O)N[C@@H](CCC(=O)NCCCC[C@H](NC(=O)[C@H](CO)NC(=O)[C@@H]1CCCN1C(=O)[C@@H]1CCCN1C(=O)[C@@H]1CCCN1C(=O)[C@H](C)NC(=O)CNC(=O)[C@H](CO)NC(=O)[C@H](CO)NC(=O)[C@@H]1CCCN1C(=O)CNC(=O)CNC(=O)[C@H](C)NC(=O)[C@H](CC(C)C)NC(=O)[C@H](CC(C)C)NC(=O)[C@H](Cc1c[nH]c2ccccc12)NC(=O)[C@H](CC(N)=O)NC(=O)[C@@H](NC(=O)[C@H](Cc1ccccc1)NC(=O)[C@H](CCC(=O)O)NC(=O)C(C)(C)NC(=O)[C@H](C)NC(=O)[C@H](C)NC(=O)[C@H](CCC(N)=O)NC(=O)[C@H](CCCCN)NC(=O)[C@H](CC(=O)O)NC(=O)[C@H](CC(C)C)NC(=O)[C@H](Cc1ccc(O)cc1)NC(=O)[C@@H](NC(=O)[C@H](CO)NC(=O)[C@H](Cc1ccc(O)cc1)NC(=O)[C@H](CC(=O)O)NC(=O)[C@H](CO)NC(=O)[C@@H](NC(=O)[C@H](Cc1ccccc1)NC(=O)[C@@H](NC(=O)CNC(=O)[C@H](CCC(=O)O)NC(=O)CSCC(=O)NCCN1CC(=O)N(C)CC1=O)[C@@H](C)O)[C@@H](C)O)[C@@H](C)CC)C(C)C)C(N)=O)C(=O)O [Compound 12] |  |  | 91% | 91% |  |  | 85% | 85% |  | 1 to 10 nM | 1 to 10 nM | 0.1 to 1 nM | 0.1 to 1 nM | > 1000 nM |
| CCCCCCCCCCCCCCCC(=O)N[C@@H](CCC(=O)NCCCC[C@H](NC(=O)[C@H](CO)NC(=O)[C@@H]1CCCN1C(=O)[C@@H]1CCCN1C(=O)[C@@H]1CCCN1C(=O)[C@H](C)NC(=O)CNC(=O)[C@H](CO)NC(=O)[C@H](CO)NC(=O)[C@@H]1CCCN1C(=O)CNC(=O)CNC(=O)[C@H](C)NC(=O)[C@H](CC(C)C)NC(=O)[C@H](CC(C)C)NC(=O)[C@H](Cc1c[nH]c2ccccc12)NC(=O)[C@H](CC(N)=O)NC(=O)[C@@H](NC(=O)[C@H](Cc1ccccc1)NC(=O)[C@H](CCC(=O)O)NC(=O)C(C)(C)NC(=O)[C@H](C)NC(=O)[C@H](C)NC(=O)[C@H](CCC(N)=O)NC(=O)[C@H](CCCCN)NC(=O)[C@H](CC(=O)O)NC(=O)[C@H](CC(C)C)NC(=O)[C@H](Cc1ccc(O)cc1)NC(=O)[C@@H](NC(=O)[C@H](CO)NC(=O)[C@H](Cc1ccc(O)cc1)NC(=O)[C@H](CC(=O)O)NC(=O)[C@H](CO)NC(=O)[C@@H](NC(=O)[C@H](Cc1ccccc1)NC(=O)[C@@H](NC(=O)CNC(=O)[C@H](CCC(=O)O)NC(=O)CSCC(=O)NCCN1CCc2ccccc2C1=O)[C@@H](C)O)[C@@H](C)O)[C@@H](C)CC)C(C)C)C(N)=O)C(=O)O [Compound 13] | 1 to 10 nM | 1 to 10 nM | 69% | 69% | 1 to 10 nM | 10 to 100 nM | 25% | 25% | > 1000 nM |  |  |  |  |  |
| CCCCCCCCCCCCCCCC(=O)N[C@@H](CCC(=O)NCCCC[C@H](NC(=O)[C@H](CO)NC(=O)[C@@H]1CCCN1C(=O)[C@@H]1CCCN1C(=O)[C@@H]1CCCN1C(=O)[C@H](C)NC(=O)CNC(=O)[C@H](CO)NC(=O)[C@H](CO)NC(=O)[C@@H]1CCCN1C(=O)CNC(=O)CNC(=O)[C@H](C)NC(=O)[C@H](CC(C)C)NC(=O)[C@H](CC(C)C)NC(=O)[C@H](Cc1c[nH]c2ccccc12)NC(=O)[C@H](CC(N)=O)NC(=O)[C@@H](NC(=O)[C@H](Cc1ccccc1)NC(=O)[C@H](CCC(=O)O)NC(=O)C(C)(C)NC(=O)[C@H](C)NC(=O)[C@H](C)NC(=O)[C@H](CCC(N)=O)NC(=O)[C@H](CCCCN)NC(=O)[C@H](CC(=O)O)NC(=O)[C@H](CC(C)C)NC(=O)[C@H](Cc1ccc(O)cc1)NC(=O)[C@@H](NC(=O)[C@H](CO)NC(=O)[C@H](Cc1ccc(O)cc1)NC(=O)[C@H](CC(=O)O)NC(=O)[C@H](CO)NC(=O)[C@@H](NC(=O)[C@H](Cc1ccccc1)NC(=O)[C@@H](NC(=O)CNC(=O)[C@H](CCC(=O)O)NC(=O)CSCC(=O)NCCN1CC[C@H](OC)C1=O)[C@@H](C)O)[C@@H](C)O)[C@@H](C)CC)C(C)C)C(N)=O)C(=O)O [Compound 14] | 0.1 to 1 nM | 0.1 to 1 nM | 81% | 81% | 10 to 100 nM |  | < 10% |  | > 1000 nM |  |  |  |  |  |
